Assay results published in ChEMBL document CHEMBL1821633, “Norcantharimide analogues possessing terminal phosphate esters and their anti-cancer activity” (2011).

What was measured:
Type in all cases: functional
MCF7 = assay: Antiproliferative activity against human MCF7 cells after 72 hrs by MTT assay; details: MCF7, 72 h
DU-145 = assay: Antiproliferative activity against human DU145 cells after 72 hrs by MTT assay; details: DU-145, 72 h
[1] = Antiproliferative activity against human BE(2)-C cells after 72 hrs by MTT assay
A2780 = assay: Antiproliferative activity against human A2780 cells after 72 hrs by MTT assay; details: A2780, 72 h
SW480 = assay: Antiproliferative activity against human SW480 cells after 72 hrs by MTT assay; details: SW480, 72 h
A-431 = assay: Antiproliferative activity against human A431 cells after 72 hrs by MTT assay; details: A-431, 72 h
HT-29 = assay: Antiproliferative activity against human HT-29 cells after 72 hrs by MTT assay; details: HT-29, 72 h
NCI-H460 = assay: Antiproliferative activity against human H460 cells after 72 hrs by MTT assay; details: NCI-H460, 72 h
[2] = Antiproliferative activity against human SJ-G2 cells after 72 hrs by MTT assay; details: SJ-G2, 72 h

Row | SMILES | GI50 (MCF7) | GI50 (DU-145) | GI50 (A2780) | GI50 (SW480) | GI50 (A-431) | GI50 (HT-29) | GI50 (NCI-H460) | GI50 [1] | GI50 [2]
1 | CCOP(=O)(OCC)O[C@H]1CCCC[C@@H]1N1C(=O)[C@@H]2[C@H](C1=O)[C@H]1CC[C@@H]2O1 | 50 µM | 36 µM | 22 µM | 33 µM | 47 µM | 57 µM | 89 µM | 31 µM | 60 µM
2 | O=C1[C@@H]2[C@H](C(=O)N1[C@H]1CCCC[C@@H]1OP(=O)(OCC(Cl)(Cl)Cl)OCC(Cl)(Cl)Cl)[C@H]1CC[C@@H]2O1 | 54 µM | 69 µM | 39 µM | 69 µM | 48 µM | 56 µM | > 100 µM | 51 µM | 45 µM
3 | O=C1[C@@H]2[C@H](C(=O)N1CCCCOP(=O)(Oc1ccccc1)Oc1ccccc1)[C@H]1CC[C@@H]2O1 | 19 µM | 13 µM | 17 µM | 28 µM | 21 µM | 14 µM | 64 µM | 25 µM | 17 µM
4 | O=C1c2ccccc2C(=O)N1CCCOP(=O)(Oc1ccccc1)Oc1ccccc1 | > 100 µM | > 100 µM | > 100 µM | > 100 µM | > 100 µM | > 100 µM | > 100 µM | > 100 µM | > 100 µM
5 | O=C1[C@@H]2[C@H](C(=O)N1CCOP(=O)(Oc1ccccc1)Oc1ccccc1)[C@H]1CC[C@@H]2O1 | > 100 µM | > 100 µM | > 100 µM | > 100 µM | > 100 µM | > 100 µM | > 100 µM | > 100 µM | > 100 µM
6 | O=C1[C@@H]2[C@H](C(=O)N1CCCCCCOP(=O)(Oc1ccccc1)Oc1ccccc1)[C@H]1CC[C@@H]2O1 | 9.1 µM | 7 µM | 11 µM | 14 µM | 13 µM | 5.4 µM | 25 µM | 14 µM | 14 µM
7 | O=C1[C@@H]2[C@H](C(=O)N1[C@H]1CCCC[C@@H]1OP(=O)(Oc1ccccc1)Oc1ccccc1)[C@H]1CC[C@@H]2O1 | 14 µM | 35 µM | 24 µM | 26 µM | 26 µM | 11 µM | 48 µM | 28 µM | 31 µM
8 | O=C1OC(=O)C2C3CCC(O3)C12 (stereo not drawn) [DEMETHYL-CANTHARIDIN] | 68 µM | 28 µM | 38 µM | 44 µM | 31 µM | 57 µM | 45 µM | 43 µM | 23 µM
9 | O=C1[C@@H]2[C@H](C(=O)N1CCCCCOP(=O)(Oc1ccccc1)Oc1ccccc1)[C@H]1CC[C@@H]2O1 | 31 µM | 52 µM | 46 µM | 50 µM | 45 µM | 42 µM | 63 µM | 56 µM | 50 µM
10 | O=C1[C@@H]2[C@H](C(=O)N1CCCOP(=O)(Oc1ccccc1)Oc1ccccc1)[C@H]1CC[C@@H]2O1 | > 100 µM | > 100 µM | > 100 µM | > 100 µM | > 100 µM | > 100 µM | > 100 µM | > 100 µM | > 100 µM
11 | O=C1[C@@H]2[C@H](C(=O)N1CCO)[C@H]1CC[C@@H]2O1 | > 100 µM | > 100 µM | > 100 µM | > 100 µM | > 100 µM | > 100 µM | > 100 µM | > 100 µM | > 100 µM

Second part, led by results:

Row | GI50 (MCF7) | GI50 (DU-145) | GI50 (A2780) | GI50 (SW480) | GI50 (A-431) | GI50 (HT-29) | GI50 (NCI-H460) | SMILES | GI50 [1] | GI50 [2]
12 | 12 µM | 13 µM | 7.7 µM | 10 µM | 12 µM | 11 µM | 13 µM | O=C1[C@@H]2[C@H](C(=O)N1CCCCCCOP(=O)(OCC(Cl)(Cl)Cl)OCC(Cl)(Cl)Cl)[C@H]1CC[C@@H]2O1 | 9.3 µM | 14 µM
13 | 28 µM | 49 µM | 26 µM | 32 µM | 31 µM | 16 µM | 56 µM | O=C1[C@@H]2[C@H](C(=O)N1CCCCOP(=O)(OCC(Cl)(Cl)Cl)OCC(Cl)(Cl)Cl)[C@H]1CC[C@@H]2O1 | 40 µM | 48 µM
14 | 16 µM | 26 µM | 16 µM | 17 µM | 18 µM | 15 µM | 29 µM | O=C1[C@@H]2[C@H](C(=O)N1CCCCCOP(=O)(OCC(Cl)(Cl)Cl)OCC(Cl)(Cl)Cl)[C@H]1CC[C@@H]2O1 | 22 µM | 19 µM
15 | > 100 µM | > 100 µM | > 100 µM | > 100 µM | > 100 µM | > 100 µM | > 100 µM | O=C1[C@@H]2[C@H](C(=O)N1CCCCCCO)[C@H]1CC[C@@H]2O1 | > 100 µM | > 100 µM
16 | > 100 µM | > 100 µM | > 100 µM | > 100 µM | > 100 µM | > 100 µM | > 100 µM | CCOP(=O)(OCC)OCCCCN1C(=O)[C@@H]2[C@H](C1=O)[C@H]1CC[C@@H]2O1 | > 100 µM | > 100 µM
17 | 60 µM | > 100 µM | 47 µM | 72 µM | 80 µM | 57 µM | 78 µM | O=C1[C@@H]2[C@H](C(=O)N1CCCOP(=O)(OCC(Cl)(Cl)Cl)OCC(Cl)(Cl)Cl)[C@H]1CC[C@@H]2O1 | 50 µM | 58 µM
18 | > 100 µM | > 100 µM | > 100 µM | > 100 µM | > 100 µM | > 100 µM | > 100 µM | O=C1[C@@H]2[C@H](C(=O)N1CCOP(=O)(OCC(Cl)(Cl)Cl)OCC(Cl)(Cl)Cl)[C@H]1CC[C@@H]2O1 | > 100 µM | > 100 µM
19 | > 100 µM | > 100 µM | > 100 µM | > 100 µM | > 100 µM | > 100 µM | > 100 µM | CCOP(=O)(OCC)OCCCCCN1C(=O)[C@@H]2[C@H](C1=O)[C@H]1CC[C@@H]2O1 | > 100 µM | > 100 µM
20 | 28 µM | 21 µM | 15 µM | 18 µM | 27 µM | 33 µM | 49 µM | CCOP(=O)(OCC)OCCN1C(=O)[C@@H]2[C@H](C1=O)[C@H]1CC[C@@H]2O1 | – | 43 µM
21 | > 100 µM | > 100 µM | > 100 µM | > 100 µM | > 100 µM | > 100 µM | > 100 µM | CCOP(=O)(OCC)OCCCCCCN1C(=O)[C@@H]2[C@H](C1=O)[C@H]1CC[C@@H]2O1 | > 100 µM | > 100 µM
